System: relapsed or refractory, rituximab-naive or -sensitive follicular B-cell NHL
Assay: Time to progression (TTP), Vc-R vs rituximab study, by biomarker
Assay type: in vivo, human
Set-up: TTP Median: unit not given here
Excerpt: Non-Hodgkin lymphoma (NHL) encompasses several unique malignant lymphoid disease entities that vary in clinical behavior, morphologic appearance, immunologic, and molecular phenotype. […] A randomized, open-label, active-controlled, multicenter, multinational, prospective study to compare the efficacy and safety of the combination of bortezomib and rituximab (Vc-R) to single-agent rituximab in subjects who have relapsed or refractory, rituximab-naive or -sensitive follicular B-cell NHL was performed.
Subjects were centrally randomized to Treatment Groups A (Vc-R) or B (rituximab) in a 1:1 ratio taking into account the following stratification factors: • Follicular Lymphoma International Prognostic Index (FLIPI) score (low [0 or 1 factor], intermediate [2 factors], high [≧3 factors]); • Prior rituximab therapy (yes, no); • Time since last dose of anti-lymphoma therapy (≦1 year, >1 year); • Region (United States/Canada, European Union, Rest of World).
For single-marker association analyses and pair-wise comparisons, a log rank test and Cox proportional hazard model was utilized for assessments of PFS, TTP, and OS between the treatment groups. Kaplan-Meier curves were utilized to estimate the distribution differences between groups in the time-to-event analyses. Comparison of the response rates between the treatment groups was conducted using the Fishers exact test. Single-marker association analyses were stratified by the covariates.
For pair-wise comparison analysis, biomarker pairs were formed by combinations of two markers. A log rank test was utilized for assessments of PFS, TTP, and OS between the treatment groups in the subpopulation defined by biomarker pairs. Kaplan-Meier curves were utilized to estimate the distribution differences between groups in the time-to-event analyses. Comparison of the response rates between the treatment groups was conducted using the Fishers exact test. Methods of Analysis for the multiple biomarker comparison models can be found in section 4.6.

[1] = PSMB1/I208N: T/T, Ann Arbor Stage IV, IRC review
[2] = PSMB1/I208N: T/T, High Tumor Burden, IRC review
[3] = PSMB1/I208N: T/T, ≦65 years old, IRC review
[4] = PSMB1/P11A: C/G, Ann Arbor Stage IV, IRC review
[5] = PSMB1/P11A: C/G, High Tumor Burden, IRC review
[6] = PSMB1/P11A: C/G, ≦65 years old, IRC review
[7] = PSMB1/P193L: C/C, Ann Arbor Stage IV, IRC review
[8] = PSMB1/P193L: C/C, High Tumor Burden, IRC review
[9] = PSMB1/P193L: C/C, ≦65 years old, IRC review
[10] = PSMB2/E49X: G/G, Ann Arbor Stage IV, IRC review
[11] = PSMB2/E49X: G/G, High Tumor Burden, IRC review
[12] = PSMB2/E49X: G/G, ≦65 years old, IRC review
[13] = PSMB2/G187V: G/G, Ann Arbor Stage IV, IRC review
[14] = PSMB2/G187V: G/G, High Tumor Burden, IRC review
[15] = PSMB2/G187V: G/G, ≦65 years old, IRC review
[16] = PSMB2/L159F: C/C, Ann Arbor Stage IV, IRC review
[17] = PSMB2/L159F: C/C, High Tumor Burden, IRC review
[18] = PSMB2/L159F: C/C, ≦65 years old, IRC review
[19] = PSMB5/L206M: C/C, Ann Arbor Stage IV, IRC review
[20] = PSMB5/L206M: C/C, High Tumor Burden, IRC review
[21] = PSMB5/L206M: C/C, ≦65 years old, IRC review
[22] = PSMB5/R24C: C/C, ≦65 years old, IRC review
[23] = PSMB5/R24C: C/T, 2 Prior Lines of Therapy, IRC review
[24] = PSMB5/R24C: C/T, High Tumor Burden, IRC review
[25] = PSMB6/A234D: C/C, Ann Arbor Stage IV, IRC review
[26] = PSMB6/A234D: C/C, High Tumor Burden, IRC review
[27] = PSMB6/A234D: C/C, ≦65 years old, IRC review
[28] = PSMB6/P107A: C/C, Ann Arbor Stage IV, IRC review
[29] = PSMB6/P107A: C/C, ≦65 years old, IRC review
[30] = PSMB8/G8R: G/G, Ann Arbor Stage IV, IRC review
[31] = PSMB8/G8R: G/G, High Tumor Burden, IRC review
[32] = PSMB8/G8R: G/G, ≦65 years old, IRC review
[33] = PSMB8/R141C: C/C, Ann Arbor Stage IV, IRC review
[34] = PSMB8/R141C: C/C, High Tumor Burden, IRC review
[35] = PSMB8/R141C: C/C, ≦65 years old, IRC review
[36] = PSMB8/V182M: G/G, >1 year since last anti-lymphoma treatment, IRC review
[37] = PSMB8/V182M: G/G, Ann Arbor Stage IV, IRC review
[38] = PSMB8/V182M: G/G, High Tumor Burden, IRC review
[39] = PSMB8/V182M: G/G, ≦65 years old, IRC review
[40] = PSMB9/G9E: G/G, >1 year since last anti-lymphoma treatment, IRC review
[41] = PSMB9/G9E: G/G, Ann Arbor Stage IV, IRC review
[42] = PSMB9/G9E: G/G, High Tumor Burden, IRC review
[43] = PSMB9/G9E: G/G, ≦65 years old, IRC review
[44] = PSMB9/R60H: A/G, Male, IRC review
[45] = PSMB9/R60H: G/G, ≦65 years old, IRC review
[46] = PSMB9/V32I: C/C, >1 year since last anti-lymphoma treatment, IRC review
[47] = PSMB9/V32I: C/C, Ann Arbor Stage IV, IRC review
[48] = PSMB9/V32I: C/C, No Subgroup, IRC review
[49] = PSMB9/V32I: C/C, ≦65 years old, IRC review

Substance: rituximab
- TTP Median (PSMB1/A171S: G/G, ≦65 years old, IRC review): 326
- TTP Evt/N [1]: 95/127
- TTP Median [1]: 278
- TTP Evt/N [2]: 110/147
- TTP Median [2]: 273
- TTP Evt/N [3]: 131/198
- TTP Median [3]: 326
- TTP Evt/N [4]: 46/59
- TTP Median [4]: 235
- TTP Evt/N [5]: 52/72
- TTP Median [5]: 253
- TTP Evt/N [6]: 62/96
- TTP Median [6]: 288
- TTP Evt/N [7]: 95/127
- TTP Median [7]: 278
- TTP Evt/N [8]: 110/147
- TTP Median [8]: 273
- TTP Evt/N [9]: 131/198
- TTP Median [9]: 326
- TTP Evt/N [10]: 95/127
- TTP Median [10]: 278
- TTP Evt/N [11]: 110/147
- TTP Median [11]: 273
- TTP Evt/N [12]: 131/198
- TTP Median [12]: 326
- TTP Evt/N [13]: 95/127
- TTP Median [13]: 278
- TTP Evt/N [14]: 110/147
- TTP Median [14]: 273
- TTP Evt/N [15]: 131/198
- TTP Median [15]: 326
- TTP Evt/N [16]: 95/127
- TTP Median [16]: 278
- TTP Evt/N [17]: 110/147
- TTP Median [17]: 273
- TTP Evt/N [18]: 131/198
- TTP Median [18]: 326
- TTP Evt/N [19]: 95/127
- TTP Median [19]: 278
- TTP Evt/N [20]: 110/147
- TTP Median [20]: 273
- TTP Evt/N [21]: 131/198
- TTP Median [21]: 326
- TTP Evt/N [22]: 115/170
- TTP Median [22]: 334
- TTP Evt/N [23]: 8/10
- TTP Median [23]: 280
- TTP Evt/N [24]: 17/21
- TTP Median [24]: 275
- TTP Evt/N [25]: 95/127
- TTP Median [25]: 278
- TTP Evt/N [26]: 110/147
- TTP Median [26]: 273
- TTP Evt/N [27]: 131/198
- TTP Median [27]: 326
- TTP Evt/N [28]: 92/124
- TTP Median [28]: 279
- TTP Evt/N [29]: 126/189
- TTP Median [29]: 330
- TTP Evt/N [30]: 88/120
- TTP Median [30]: 279
- TTP Evt/N [31]: 104/140
- TTP Median [31]: 271
- TTP Evt/N [32]: 124/189
- TTP Median [32]: 330
- TTP Evt/N [33]: 95/127
- TTP Median [33]: 278
- TTP Evt/N [34]: 110/147
- TTP Median [34]: 273
- TTP Evt/N [35]: 131/198
- TTP Median [35]: 326
- TTP Evt/N [36]: 104/165
- TTP Median [36]: 381
- TTP Evt/N [37]: 95/127
- TTP Median [37]: 278
- TTP Evt/N [38]: 110/147
- TTP Median [38]: 273
- TTP Evt/N [39]: 131/198
- TTP Median [39]: 326
- TTP Evt/N [40]: 104/163
- TTP Median [40]: 381
- TTP Evt/N [41]: 95/126
- TTP Median [41]: 278
- TTP Evt/N [42]: 110/145
- TTP Median [42]: 271
- TTP Evt/N [43]: 131/196
- TTP Median [43]: 326
- TTP Evt/N [44]: 22/28
- TTP Median [44]: 273
- TTP Evt/N [45]: 79/119
- TTP Median [45]: 330
- TTP Evt/N [46]: 102/160
- TTP Median [46]: 379
- TTP Evt/N [47]: 93/123
- TTP Median [47]: 277
- TTP Median (PSMB9/V32I: C/C, High Tumor Burden, IRC Review): 273
- TTP Evt/N [48]: 177/266
- TTP Median [48]: 345
- TTP Evt/N [49]: 129/192
- TTP Median [49]: 326
